Measurements published in patent US11484543B2, “Compositions and methods for diagnosing and treating diseases and disorders associated with mutant KCNJ5” (The Rockefeller University, priority 2017, dated 2022).
Like-named read-outs stand apart in the source and are kept apart here.

What was measured:
[1] = molecular target: T1, KCNJ5^G151R homotetramers (Homo sapiens, UniProt P48544, G151R); assay: Perforated whole-cell patch clamp, KCNJ5^G151R homotetramers in HEK293T cells; format: cell-based; conditions: HEK-293T, at −80 mV
T1 construct: GFP; expressed in transfected cells; host or cells: HEK293T (American Type Culture Collection), transient
T1 sequence (P48544 1-419 G151R): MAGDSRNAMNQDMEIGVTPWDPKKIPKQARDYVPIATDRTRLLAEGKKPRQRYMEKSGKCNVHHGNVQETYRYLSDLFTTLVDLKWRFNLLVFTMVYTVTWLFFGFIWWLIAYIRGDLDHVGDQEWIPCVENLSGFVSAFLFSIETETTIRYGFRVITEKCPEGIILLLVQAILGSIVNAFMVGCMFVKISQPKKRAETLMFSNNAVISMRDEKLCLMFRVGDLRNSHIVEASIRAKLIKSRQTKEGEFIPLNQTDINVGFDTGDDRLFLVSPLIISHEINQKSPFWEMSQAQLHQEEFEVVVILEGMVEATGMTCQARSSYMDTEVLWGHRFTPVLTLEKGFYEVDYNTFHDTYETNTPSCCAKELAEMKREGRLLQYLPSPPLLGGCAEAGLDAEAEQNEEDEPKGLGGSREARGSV
Experimental: Cation currents were measured with the perforated whole cell recording technique (140 mM NaCl/5 mM KCl bath solution, 140 mM KCl pipette solution for KCNJ5^G151R; 140 mM NaCl/5 mM KCl bath solution, 140 mM KCl, 1.8 mM MgCl2 pipette solution for KCNJ5^L168R; 140 mM KCl bath and pipette solution for KCNJ5^WT). […] Errors represent standard error of the mean, N=3 to 6. […] In contrast, WT currents are not inhibited.
HEK293T cells (American Type Culture Collection) were used for transient expression of GFP-tagged KCNJ5 or KCNJ3. The cells were grown in Dulbecco's modified Eagle medium (DMEM; Invitrogen) supplemented with 10% FBS (Invitrogen) in 5% CO2 and 95% air at 37° C. […]
Within 24 hr after transfection, the cells were treated with trypsin-containing medium (TrypLE Express) (Gibco) for 10 minutes to detach the cells. […] Fluorescence signal (an indication of positive transfection) was detected with an intensified video imaging system including a SIT 68 camera (Long Island Industries). […] After forming a high resistance seal (>2 GΩ), the membrane capacitance was monitored until the whole-cell patch configuration was formed. The cell membrane capacitance was measured and compensated. The K/cation currents were measured from −80 mV to 20 mV with 20 mV steps by an Axon 200A patch-clamp amplifier. […]

[2] = test system: CYP11B2 (aldosterone synthase) expression, H295R cells expressing KCNJ5^L168R; assay: Real-time PCR of CYP11B2 in H295R cells transfected with KCNJ5^L168R; format: cell-based, human; conditions: 5, 20 or 50 μM for 18 h; p=0.0034 at 20 μM
Experimental: H295R cells were cultured in DMEM/F12, HEPES (Gibco) supplemented with 2.5% Ultroser G (Pall Biosepra), 1% ITS+ Premix (Corning) and 1% Penicillin/Streptomycin (Gibco). Plasmids were purified using the Endofree Maxi Kit (Qiagen). […] 3×10^6 cells were transfected with 3 μg pIRES eGFP containing no insert, WT or mutant KCNJ5 using an Amaxa Nucleofector I (program P-20) and the Nucleofector Kit R (Lonza). Cells were allowed to recover briefly in RPMI 1640 medium (Gibco). […] After an additional 18 h, RNA was harvested using the RNeasy Mini Kit (Qiagen) following the manufacturer's instructions. 300 ng RNA were transcribed using the Quantitect Reverse Transcription Kit (Qiagen). Expression levels of CYP11B2 and GAPDH were quantified in triplicates in a 7300 Real-Time PCR System (Applied Biosystems) using the Taqman Gene Expression Master Mix and assays Hs01597732_m1 (CYP11B2) or HS02758991_g1 (GAPDH) (all Applied Biosystems). DDCT values were calculated by normalization of DCT values, using the average DCT of vehicle treated empty vector-transfected cells as a reference.
This cell line is derived from a human adrenocortical carcinoma and represents a commonly used in vitro model of zona glomerulosa aldosterone production (Wang et al. 2012, Horm. Metab. Res. 44:245-250). […]

[3] = single dose of 300 mg, healthy adults, cited from earlier work

Which results are given for `CC[C@H]1OC(=O)[C@H](C)[C@@H](O[C@H]2C[C@@](C)(OC)[C@@H](O)[C@H](C)O2)[C@H](C)[C@@H](O[C@@H]2O[C@H](C)C[C@H](N(C)C)[C@H]2O)[C@](C)(O)C[C@@H](C)/C(=N\OCOCCOC)[C@H](C)[C@@H](O)[C@]1(C)O` [Roxithromycin, roxithromycin]?
inhibition at 10 µM ([1]; 10 μM): 53%; inhibition at 20 µM ([1]; 20 μM): 80%; expression of CYP11B2 [2]: inhibited expression of CYP11B2 in a dose-dependent fashion; maximum serum concentrations [3]: 16.4 mg/L; maximum serum concentrations ([3]; conversion of 16.4 mg/L): ~17 µM
